{"source": "patent US8754098B2", "about": "(Salix Pharmaceuticals, Ltd., priority 2008, dated 2014)", "format_in_all_cases": "physicochemical", "key": {"[1]": {"test": "Rifaximin drying experiments (solid form by XRPD)", "settings": "for XRPD Form: vac oven 50° C., 1 day; for solid form after vacuum dried: vacuum dried (Table 1)", "description": "Dried materials obtained by vacuum drying or heating the hydrates were labeled “dry”. […] After a portion of the rifaximin was removed for XRPD analysis the remainder of the sample was dried under vacuum at ambient temperature for approximately one day. Solids were stored in a dessicator prior to analysis by XRPD. (FIG. 9)"}, "[2]": {"test": "Stressing under various relative humidities (solid form by XRPD)", "settings": "for RH stability: solid form change after exposing to 58% RH / RH stability: solid form change after exposing to 75% RH: am = amorphous", "description": "Stressing Under Various Relative Humidities (RH)\nThe jar was sealed and stored at either ambient temperature or in an oven at elevated temperature.\nX-ray powder diffraction (XRPD) analyses were performed using a Shimadzu XRD-6000 X-ray powder diffractometer using Cu Kα radiation. The instrument is equipped with a long fine focus X-ray tube. The tube voltage and amperage were set to 40 kV and 40 mA, respectively. The divergence and scattering slits were set at 1° and the receiving slit was set at 0.15 mm. Diffracted radiation was detected by a NaI scintillation detector. A θ-2θ continuous scan at 3°/min (0.4 sec/0.02° step) from 2.5 to 40°2θ was used. A silicon standard was analyzed to check the instrument alignment. Data were collected and analyzed using XRD-6100/7000 v. 5.0. Samples were prepared for analysis by placing them in a sample holder.\nX-ray powder diffraction (XRPD) analyses were performed using an Inel XRG-3000 diffractometer equipped with a CPS (Curved Position Sensitive) detector with a 2θ range of 120°. Real time data were collected using Cu—Kα radiation starting at approximately 4° 2θ at a resolution of 0.03° 2θ. The tube voltage and amperage were set to 40 kV and 30 mA, respectively. The monochromator slit was set at 5 mm by 160 μm. […] Samples were prepared for analysis by packing them into thin-walled glass capillaries. Each capillary was mounted onto a goniometer head that is motorized to permit spinning of the capillary during data acquisition. The samples were analyzed for 300 sec. Instrument calibration was performed using a silicon reference standard."}, "[3]": {"test": "Automated moisture sorption/desorption (MB / DVS)", "settings": "for Post-MB XRPD / Final Form post moisture sorption/desorption: sorption from 5% RH to 95% RH, desorption from 95% RH to 5% RH; for wt loss upon equilibration at 5% RH: moisture balance", "description": "Automated Moisture Sorption/Desorption Moisture sorption/desorption data were collected on a VTI SGA-100 Vapor Sorption Analyzer. Sorption and desorption data were collected over a range of 5% to 95% relative humidity (RH) at 10% RH intervals under a nitrogen purge. Samples were not dried prior to analysis. Equilibrium criteria used for analysis were less than 0.0100% weight change in 5 minutes, with a maximum equilibration time of 3 hours if the weight criterion was not met. Data were not corrected for the initial moisture content of the samples. NaCl and PVP were used as calibration standards."}, "[4]": {"test": "Stressing of amorphous rifaximin (vapor stress, vapor diffusion)", "settings": "for form from vapor diffusion experiment: water as an antisolvent", "description": "(§1) Vapor stressing experiments were done on amorphous material from two preparations: lyophilization from p-dioxane:water 1:1 and crash precipitation from ethyl acetate with heptane. […] The majority of the stressed samples appeared as clear red solutions after 6 days. Those solutions were placed in vials of antisolvent for vapor diffusion. Dry and wet milling experiments were conducted on amorphous materials from the two preparations mentioned above. Amorphous materials were recovered from the dry milling experiments."}, "[5]": {"test": "Milling experiments for amorphous rifaximin", "settings": "scraped sides", "description": "as §1\nA solid sample of rifaximin was charged to a milling container with a milling ball. Samples were milled for 5 or 15 minute intervals (2×5 minutes, 2×15 minutes, and 3×15 minutes) at 30 Hz using a Retsch MM200 mixer mill. Solids were scraped from the sides of the vial after each interval."}, "[6]": {"settings": "first amorphous sample of Table 3 (footnote c, 3436-54)"}, "[7]": {"settings": "second amorphous sample of Table 3 (footnote d, 3436-55)"}}}
{"smiles": "CO[C@H]1/C=C/O[C@@]2(C)Oc3c(C)c(O)c4c(O)c(c5c(nc6cc(C)ccn65)c4c3C2=O)NC(=O)/C(C)=C\\C=C\\[C@H](C)[C@H](O)[C@@H](C)[C@@H](O)[C@@H](C)[C@H](OC(C)=O)[C@@H]1C", "note": "[Form α-dry, Rifaximin]", "values": [{"measurement": "XRPD Form", "setting": "[1]", "value": "α dry"}, {"measurement": "XRPD Form", "setting": "[1]; vac oven 60° C.", "value": "α dry"}, {"measurement": "solid form after vacuum dried", "setting": "[1]; listed as α dry", "value": "α dry"}, {"measurement": "Final Form", "setting": "[2]; 33% RH, 2 days", "value": "α"}, {"measurement": "Final Form", "setting": "[2]; 33% RH, 7 days", "value": "α"}, {"measurement": "Final Form", "setting": "[2]; 43% RH, 4 days", "value": "α + β"}, {"measurement": "Final Form", "setting": "[2]; 43% RH, 11 days", "value": "β + (α)"}, {"measurement": "RH stability: solid form change after exposing to 58% RH", "setting": "[2]; listed as α dry", "value": "β"}, {"measurement": "RH stability: solid form change after exposing to 75% RH", "setting": "[2]; listed as α dry", "value": "β"}, {"measurement": "RH stability: solid form change after exposing to 94% RH", "setting": "[2]; 94% RH", "value": "β"}, {"measurement": "Post-MB XRPD / Final Form post moisture sorption/desorption", "setting": "[3]; listed as α dry", "value": "α dry"}]}
{"smiles": "CO[C@H]1/C=C/O[C@@]2(C)Oc3c(C)c(O)c4c(O)c(c5c(nc6cc(C)ccn65)c4c3C2=O)NC(=O)/C(C)=C\\C=C\\[C@H](C)[C@H](O)[C@@H](C)[C@@H](O)[C@@H](C)[C@H](OC(C)=O)[C@@H]1C", "note": "[Form β, Rifaximin, reference compound]", "values": [{"measurement": "XRPD Form", "setting": "[2]; P2O5, 4 days", "value": "α dry"}]}
{"smiles": "CO[C@H]1/C=C/O[C@@]2(C)Oc3c(C)c(O)c4c(O)c(c5c(nc6cc(C)ccn65)c4c3C2=O)NC(=O)/C(C)=C\\C=C\\[C@H](C)[C@H](O)[C@@H](C)[C@@H](O)[C@@H](C)[C@H](OC(C)=O)[C@@H]1C", "note": "[Form β-1, Rifaximin]", "values": [{"measurement": "RH stability: solid form change after exposing to 58% RH", "setting": "[2]; listed as β-1", "value": "β + pk"}, {"measurement": "RH stability: solid form change after exposing to 75% RH", "setting": "[2]; listed as β-1", "value": "β"}]}
{"smiles": "CO[C@H]1/C=C/O[C@@]2(C)Oc3c(C)c(O)c4c(O)c(c5c(nc6cc(C)ccn65)c4c3C2=O)NC(=O)/C(C)=C\\C=C\\[C@H](C)[C@H](O)[C@@H](C)[C@@H](O)[C@@H](C)[C@H](OC(C)=O)[C@@H]1C", "note": "[Form β-2, Rifaximin]", "values": [{"measurement": "solid form after vacuum dried", "setting": "[1]; listed as β-2", "value": "α dry"}, {"measurement": "RH stability: solid form change", "setting": "[2]; studied at 20% RH (footnote d)", "value": "α^d"}]}
{"smiles": "CO[C@H]1/C=C/O[C@@]2(C)Oc3c(C)c(O)c4c(O)c(c5c(nc6cc(C)ccn65)c4c3C2=O)NC(=O)/C(C)=C\\C=C\\[C@H](C)[C@H](O)[C@@H](C)[C@@H](O)[C@@H](C)[C@H](OC(C)=O)[C@@H]1C", "note": "[Form γ, Rifaximin, reference compound]", "values": [{"measurement": "hygroscopicity", "setting": "[3]", "value": "hygroscopic"}, {"measurement": "wt loss upon equilibration at 5% RH", "setting": "[3]", "value": 2.4, "unit": "%"}]}
{"smiles": "CO[C@H]1/C=C/O[C@@]2(C)Oc3c(C)c(O)c4c(O)c(c5c(nc6cc(C)ccn65)c4c3C2=O)NC(=O)/C(C)=C\\C=C\\[C@H](C)[C@H](O)[C@@H](C)[C@@H](O)[C@@H](C)[C@H](OC(C)=O)[C@@H]1C", "note": "[Form ζ, Rifaximin]", "values": [{"measurement": "solid form after vacuum dried", "setting": "[1]", "value": "η or and γ + η"}, {"measurement": "XRPD Form / Final Form after stability chamber", "setting": "[2]; 75% RH at 40° C., 1 day", "value": "ζ + γ^e"}]}
{"smiles": "CO[C@H]1/C=C/O[C@@]2(C)Oc3c(C)c(O)c4c(O)c(c5c(nc6cc(C)ccn65)c4c3C2=O)NC(=O)/C(C)=C\\C=C\\[C@H](C)[C@H](O)[C@@H](C)[C@@H](O)[C@@H](C)[C@H](OC(C)=O)[C@@H]1C", "note": "[Form η, Rifaximin]", "values": [{"measurement": "solid form after vacuum dried", "setting": "[1]; listed as η", "value": "η"}]}
{"smiles": "CO[C@H]1/C=C/O[C@@]2(C)Oc3c(C)c(O)c4c(O)c(c5c(nc6cc(C)ccn65)c4c3C2=O)NC(=O)/C(C)=C\\C=C\\[C@H](C)[C@H](O)[C@@H](C)[C@@H](O)[C@@H](C)[C@H](OC(C)=O)[C@@H]1C", "note": "[amorphous, Rifaximin]", "values": [{"measurement": "XRPD Result", "setting": "[4]; DCM, VD w/ IPE, 11 days", "value": "amorphous"}, {"measurement": "XRPD Result", "setting": "[4]; MEK, VD w/ IPE, 11 days", "value": "amorphous"}, {"measurement": "form from vapor diffusion experiment", "setting": "[4]; methanol", "value": "Form β"}, {"measurement": "form from vapor diffusion experiment", "setting": "[4]; tetrahydrofuran", "value": "Form β"}, {"measurement": "XRPD Result", "setting": "[4]; toluene, VS, RT, 6 days, Amorphous Materials", "value": "amorphous"}, {"measurement": "XRPD Result", "setting": "[4]; toluene, VS, RT, 6 days, listed as amorphous material", "value": "no peaks"}, {"measurement": "XRPD Result", "setting": "[4]; water, VS, RT, 15 days", "value": "amorphous"}, {"measurement": "form by XRPD analysis after storage", "setting": "[2]; 58% RH for 8 days", "value": "remained amorphous"}, {"measurement": "RH stability: solid form change after exposing to 58% RH", "setting": "[2]", "value": "am"}, {"measurement": "RH stability: solid form change after exposing to 75% RH", "setting": "[2]", "value": "am"}, {"measurement": "DVS weight gain from 5-95% RH", "setting": "[3]; [6]", "value": 8.364, "unit": "% eight gain from 5-95%"}, {"measurement": "DVS weight loss from 95-5% RH", "setting": "[3]; [6]", "value": 10.989, "unit": "% weight loss from 95-"}, {"measurement": "wt loss upon equilibration at 5% RH", "setting": "[3]; listed as Rifaximin Amorphous", "value": "0.7% wt loss upon equilibration at 5% RH"}, {"measurement": "DVS weight gain from 5-95% RH", "setting": "[3]; [7]", "value": 7.843, "unit": "% weight gain from 5-"}, {"measurement": "DVS weight loss from 95-5% RH", "setting": "[3]; [7]", "value": 9.172, "unit": "% weight loss from 95-5%"}, {"measurement": "Post-MB XRPD / Final Form post moisture sorption/desorption", "setting": "[3]; listed as Amorphous", "value": "amorphous"}, {"measurement": "Post-MB XRPD / Final Form post moisture sorption/desorption", "setting": "[3]; listed as Amorphous rifaximin", "value": "amorphous"}, {"measurement": "Post-MB XRPD / Final Form post moisture sorption/desorption", "setting": "[3]; listed as Rifaximin Amorphous", "value": "amorphous"}, {"measurement": "XRPD Result after milling", "setting": "[5]; sample source CP from EtOAc with heptane, 10 min. at 30 Hz", "value": "amor-"}, {"measurement": "XRPD Result after milling", "setting": "[5]; sample source lyophilization from p-dioxane: water 1:1, 10 min. at 30 Hz", "value": "amor-"}]}
{"smiles": "CO[C@H]1/C=C/O[C@@]2(C)Oc3c(C)c(O)c4c(O)c(c5c(nc6cc(C)ccn65)c4c3C2=O)NC(=O)/C(C)=C\\C=C\\[C@H](C)[C@H](O)[C@@H](C)[C@@H](O)[C@@H](C)[C@H](OC(C)=O)[C@@H]1C", "note": "[crash amorphous rifaximin, Rifaximin]", "values": [{"measurement": "hygroscopicity", "setting": "[3]", "value": "moderately hygroscopic"}]}
{"smiles": "CO[C@H]1/C=C/O[C@@]2(C)Oc3c(C)c(O)c4c(O)c(c5c(nc6cc(C)ccn65)c4c3C2=O)NC(=O)/C(C)=C\\C=C\\[C@H](C)[C@H](O)[C@@H](C)[C@@H](O)[C@@H](C)[C@H](OC(C)=O)[C@@H]1C", "note": "[lyophilized amorphous rifaximin, Rifaximin]", "values": [{"measurement": "hygroscopicity", "setting": "[3]", "value": "moderately hygroscopic"}]}
